Active and inactive are the calls of the source. No cut-off for these calls is given here.
What was measured:
[1] = tested on: Adenosylhomocysteinase (Bos taurus)
[2] = tested on: Adenosylhomocysteinase (Bos taurus); test: Kinetic constant against bovine liver S-adenosyl-L-homocysteine hydrolase (AdoHcy); c = Inactive up to 100 uM
[3] = tested on: Adenosylhomocysteinase (Bos taurus); test: Inhibitory activity against bovine liver S-adenosyl-L-homocysteine hydrolase (AdoHcy); c = Inactive up to 100 uM
[4] = target: Adenosylhomocysteinase (Homo sapiens) (UniProt P23526); conditions: Bos taurus
Adenosylhomocysteinase (Homo sapiens), sequence (P23526 2-432 limits assumed): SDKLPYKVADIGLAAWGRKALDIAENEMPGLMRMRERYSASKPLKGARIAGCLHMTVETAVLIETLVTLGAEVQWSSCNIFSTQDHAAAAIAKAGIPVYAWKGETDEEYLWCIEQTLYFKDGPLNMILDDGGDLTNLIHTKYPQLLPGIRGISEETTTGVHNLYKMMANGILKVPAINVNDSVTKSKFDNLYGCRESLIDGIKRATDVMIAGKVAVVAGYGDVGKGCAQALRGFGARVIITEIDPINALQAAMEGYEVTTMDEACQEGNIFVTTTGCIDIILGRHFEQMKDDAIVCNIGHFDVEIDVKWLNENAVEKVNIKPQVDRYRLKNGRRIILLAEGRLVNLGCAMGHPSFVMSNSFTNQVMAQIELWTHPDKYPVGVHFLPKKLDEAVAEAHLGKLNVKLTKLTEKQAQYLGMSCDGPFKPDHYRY

[5] = target: Adenosylhomocysteinase (Homo sapiens) (UniProt P23526); conditions: Bos taurus; remark: listed apart in the source
Description: Kinetic constant against bovine liver S-adenosyl-L-homocysteine hydrolase (AdoHcy); reversibleinhibitor

`Nc1ncnc2c1ncn2[C@@H]1C=C[C@@H](O)[C@H]1O` showed a k2 [1] of 0.043 min⁻¹.

For `C[C@@H]1C[C@@H](n2cnc3c(N)ncnc32)[C@H](O)[C@@H]1O`, the k2 [1] was 0.025 min⁻¹.

With `CC1=C[C@@H](n2cnc3c(N)ncnc32)[C@H](O)[C@@H]1O` the k2 [1] was 0.09 min⁻¹.

`C=C[C@H]1C[C@@H](n2cnc3c(N)ncnc32)[C@H](O)[C@@H]1O` showed a k2 [1] of 0.053 min⁻¹.

In the case of `Nc1ncnc2c1ncn2[C@@H]1CC[C@@H](O)[C@H]1O`, the k2 [1] was 0.109 min⁻¹.

With `C[C@H]1C[C@@H](n2cnc3c(N)ncnc32)[C@H](O)[C@@H]1O` the k2 [1] was 0.039 min⁻¹.

With `Nc1ncnc2c1ncn2[C@@H]1C[C@H](c2ccccc2)[C@@H](O)[C@H]1O` the k2 [1] was 0.01 min⁻¹.

For `CC[C@H]1C[C@@H](n2cnc3c(N)ncnc32)[C@H](O)[C@@H]1O`, the k2 [1] was 0.083 min⁻¹.

In the case of `CCC1=C[C@@H](n2cnc3c(N)ncnc32)[C@H](O)[C@@H]1O`, the k2 [2] was “inactive” and the Ki [3] was “Inactive”.

Work on `Nc1ncnc2c1ncn2[C@@H]1C=C(CO)[C@@H](O)[C@H]1O` yielded a k2 [4] of 1.98 min⁻¹.

In the case of `Nc1ncnc2c1ncn2[C@@H]1C[C@H](CO)[C@@H](O)[C@H]1O`, the k2 [5] was “Reversible inhibition”.
